According to patent US12545643B2, “3,5-diaminobenzoic acid compound, and Pin1 inhibitor and therapeutic agent for inflammatory diseases using same” (Amenis Bioscience, Inc., priority 2020, dated 2026):

What was measured:
Pin1 [1] = target: T1, Pin1 (Homo sapiens, UniProt Q13526); experiment: Cell-based assay of Pin1 inhibition (AMPK phosphorylation level as index, Western blot); set-up: endogenous in cells; host or cells: 293T cells; key: +++: a higher level of AMPK phosphorylation is promoted, as compared with C1; ++: a similar level of AMPK phosphorylation is promoted, as compared with C1; +: a lower level of AMPK phosphorylation is promoted, as compared with C1; −: no or almost no promotion is found in AMPK phosphorylation; conditions: 293T cells, compound at 50 μM, 10 mM 2-DG, pAMPK level compared with known Pin1 inhibitor C1
Protocol: To evaluate the inhibitory activity of each compound synthesized in Example 1 against the function of Pin1, a cell-based assay was performed according to the method previously developed by the inventors (Yusuke Nakatsu et al., Journal of Biological Chemistry, 2015, Vol. 290, No. 40, pp. 24255-24266), in which the phosphorylation level of AMPK (AMP-activated protein kinase), a protein whose phosphorylation is suppressed by Pin1, was examined as an index.
Briefly, 293T cells were plated on a collagen-coated 24-well plate. Forty-eight hours later, each compound synthesized in the preceding example (at 50 μM) was added to the plate, and the plate was left to stand in an incubator for 30 minutes. Subsequently, 10 mM 2-DG was added to the plate, and one hour later, each sample was collected with a buffer containing mercaptoethanol and SDS.
SDS-PAGE and blotting were performed, and blocking was then performed with 3% BSA for 1 hour, according to conventional protocols. Subsequently, a pAMPK antibody (Cell Signaling; diluted 1:2000 in Can Get Signal Solution 1, Toyobo) as a primary antibody, and an HRP-linked anti rabbit IgG (GE Healthcare; diluted 1:4000 in Can Get Signal Solution 2, Toyobo) as a secondary antibody were allowed to react at ambient temperature for 1 hour prior to detection.
The inhibitory activity against the function of Pin1 was evaluated as indicated below by comparing the inhibition levels between each compound and a known Pin1 inhibitor, C1 ((R)-2-(5-(4-methoxyphenyl)-2-methylfuran-3-carboxamido)-3-(naphthalene-6-yl) propanoic acid):
(+++): a higher level of AMPK phosphorylation is promoted, as compared with C1;
(++): a similar level of AMPK phosphorylation is promoted, as compared with C1;
(+): a lower level of AMPK phosphorylation is promoted, as compared with C1;
(−): no or almost no promotion is found in AMPK phosphorylation.

Pin1 [2] = target: T1, Pin1; experiment: Cell-free assay of peptidylprolyl isomerase activity (absorbance at 330 nm, substrate Suc-Ala-Glu-Pro-Phe-pNA); assay type: biochemical; conditions: compound 10 μM, Pin1 5 nM, substrate peptide 60 μM, 10° C.; read-out: Pin1 inhibition activity Cell-free assay (inhibition ratio)
Protocol: For some compounds synthesized in Example 1, the inhibitory activity against the function of Pin1 was measured by a cell-free assay based on the method by Janowski et al. (AnalyticalBiochemistry, 1997, Vol. 252, Issue 2, pp. 299-307) because there is an assay measuring peptidylprolylisomerase activity without cells (cell-free).
Briefly, an assay buffer (containing 35 mM HEPES, pH 7.8, 50 μM DTT and 0.0025% NP40) was equilibrated to 10° C. in a quartz cell with stirring function. To this solution was added the compound dissolved in DMSO (10 μM) and then UV spectrum of the resulting solution was immediately measured. Then Pin1 (final concentration of 5 nM) was added to the solution. The reaction was initiated by adding a substrate peptide (Suc-Ala-Glu-Pro-Phe-pNA) dissolved in 0.5 M LiCl solution in trifluoroethanol (final concentration of 60 μM). After reaction was initiated, the change of absorbance at 330 nm was measured for 5 minutes. The resultant reaction curve was fitted to a first order decay model to calculate the reaction rate. The catalytic reaction rate was calculated by subtracting the background rate from the reaction rate. The inhibition ratio (%) was calculated from the catalytic reaction rates in the presence and absence of the compound. The higher inhibition ratio means the higher inhibitory activity against Pin1 function.

T1 sequence (Q13526 whole entry): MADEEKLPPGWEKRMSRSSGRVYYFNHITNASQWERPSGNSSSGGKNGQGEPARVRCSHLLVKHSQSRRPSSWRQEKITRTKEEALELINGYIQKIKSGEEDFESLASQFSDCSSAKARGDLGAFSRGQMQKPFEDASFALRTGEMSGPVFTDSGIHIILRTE

Row | SMILES | inhibition at 10 µM (Pin1 [2]) [%] | Pin1 inhibition activity Cell-based assay (Pin1 [1])
1 | COC(=O)c1cc(NC(=O)c2ccc3ccccc3c2)cc(NC(=O)n2c3ccccc3c3ccccc32)c1 [Compound H-591] |  | +++ (Hydrolysis causes conversion to H-594)
2 | O=C(O)c1cc(NC(=O)c2ccc3ccccc3c2)cc(NC(=O)n2c3ccccc3c3ccccc32)c1 [Compound H-594] |  | +++
3 | COC(=O)c1cc(NC(=O)Nc2cccc3ccccc23)cc(NC(=O)c2ccc3ccccc3c2)c1 [Compound H-609] |  | ++ to +++ (Hydrolysis causes conversion to H-613)
4 | COC(=O)c1cc(NC(=O)c2ccccc2)cc(NC(=O)n2c3ccccc3c3ccccc32)c1 [Compound H-679] |  | ++ (Hydrolysis causes conversion to H-681)
5 | O=C(O)c1cc(NC(=O)c2ccccc2)cc(NC(=O)n2c3ccccc3c3ccccc32)c1 [Compound H-681] |  | ++
6 | O=C(O)c1cc(NC(=O)c2cccnc2)cc(NC(=O)n2c3ccccc3c3ccccc32)c1 [Compound H-682] |  | +
7 | COC(=O)c1cc(NC(=O)c2ccc(NC(C)=O)cc2)cc(NC(=O)n2c3ccccc3c3ccccc32)c1 [Compound H-687] |  | − (Hydrolysis causes conversion to H-694)
8 | COC(=O)c1cc(NC(=O)c2ccc3c(c2)OCO3)cc(NC(=O)n2c3ccccc3c3ccccc32)c1 [Compound H-690] |  | − (Hydrolysis causes conversion to H-695)
9 | O=C(O)c1cc(NC(=O)c2ccc3c(c2)OCO3)cc(NC(=O)n2c3ccccc3c3ccccc32)c1 [Compound H-695] |  | +++
10 | COC(=O)c1cc(NC(=O)c2ccc(OC(C)=O)cc2)cc(NC(=O)n2c3ccccc3c3ccccc32)c1 [Compound H-696] |  | ++ (Hydrolysis causes conversion to H-697)
11 | O=C(O)c1cc(NC(=O)c2ccc(O)cc2)cc(NC(=O)n2c3ccccc3c3ccccc32)c1 [Compound H-697] |  | +
12 | COC(=O)c1cc(NC(=O)c2cnccn2)cc(NC(=O)n2c3ccccc3c3ccccc32)c1 [Compound H-699] |  | ++ (Hydrolysis causes conversion to H-700)
13 | O=C(O)c1cc(NC(=O)c2cnccn2)cc(NC(=O)n2c3ccccc3c3ccccc32)c1 [Compound H-700] |  | ++
14 | COC(=O)c1cc(NC(=O)c2ccc3ccccc3c2)cc(NC(=O)N(c2ccccc2)c2ccccc2)c1 [Compound H-728] |  | + (Hydrolysis causes conversion to H-732)
15 | COC(=O)c1cc(NC(=O)c2ccc3ccccc3n2)cc(NC(=O)N(c2ccccc2)c2ccccc2)c1 [Compound H-729] |  | ++ (Hydrolysis causes conversion to H-733)
16 | COC(=O)c1cc(NC(=O)c2ccc3c(c2)OCCO3)cc(NC(=O)N(c2ccccc2)c2ccccc2)c1 [Compound H-730] |  | ++ (Hydrolysis causes conversion to H-734)
17 | COC(=O)c1cc(NC(=O)c2cnc3ccccc3n2)cc(NC(=O)N(c2ccccc2)c2ccccc2)c1 [Compound H-731] |  | +++ (Hydrolysis causes conversion to H-735)
18 | O=C(O)c1cc(NC(=O)c2ccc3ccccc3c2)cc(NC(=O)N(c2ccccc2)c2ccccc2)c1 [Compound H-732] |  | +
19 | O=C(O)c1cc(NC(=O)c2ccc3c(c2)OCCO3)cc(NC(=O)N(c2ccccc2)c2ccccc2)c1 [Compound H-734] | 82 | −
20 | O=C(O)c1cc(NC(=O)c2cnc3ccccc3n2)cc(NC(=O)N(c2ccccc2)c2ccccc2)c1 [Compound H-735] |  | +
21 | COC(=O)c1cc(NC(=O)Cn2c3ccccc3c3ccccc32)cc(NC(=O)c2ccc3ccccc3c2)c1 [Compound H-744] |  | + (Hydrolysis causes conversion to H-745)
22 | COC(=O)c1cc(NC(=O)Cn2c3ccccc3c3ccccc32)cc(NC(=O)c2ccc3ccccc3n2)c1 [Compound H-746] |  | − (Hydrolysis causes conversion to H-747)
23 | O=C(Cn1c2ccccc2c2ccccc21)Nc1cc(NC(=O)c2ccc3ccccc3n2)cc(C(=O)O)c1 [Compound H-747] |  | ++
24 | COC(=O)c1cc(NC(=O)Cn2c3ccccc3c3ccccc32)cc(NC(=O)c2ccc3c(c2)OCCO3)c1 [Compound H-748] |  | ++ (Hydrolysis causes conversion to H-749)
25 | COC(=O)c1cc(NC(=O)COc2ccccc2)cc(NC(=O)n2c3ccccc3c3ccccc32)c1 [Compound H-758] |  | − (Hydrolysis causes conversion to H-759)
26 | COC(=O)c1cc(NC(=O)COc2ccc3ccccc3c2)cc(NC(=O)n2c3ccccc3c3ccccc32)c1 [Compound H-760] |  | + (Hydrolysis causes conversion to H-761)
27 | COC(=O)c1cc(NC(=O)COc2ccc3ccccc3n2)cc(NC(=O)n2c3ccccc3c3ccccc32)c1 [Compound H-764] |  | − (Hydrolysis causes conversion to H-765)
28 | COC(=O)c1cc(NC(=O)CNC(=O)c2ccccc2)cc(NC(=O)n2c3ccccc3c3ccccc32)c1 [Compound H-766] |  | + (Hydrolysis causes conversion to H-767)
29 | COC(=O)c1cc(NC(=O)CNC(=O)OCc2ccccc2)cc(NC(=O)n2c3ccccc3c3ccccc32)c1 [Compound H-768] |  | − (Hydrolysis causes conversion to H-769)
30 | O=C(CN(c1ccccc1)c1ccccc1)Nc1cc(NC(=O)c2ccc3c(c2)OCCO3)cc(C(=O)O)c1 [Compound H-823] | 4.2 | 

The next lines start with results.

Row | inhibition at 10 µM (Pin1 [2]) [%] | SMILES | Pin1 inhibition activity Cell-based assay (Pin1 [1])
31 | 38 | O=C(Nc1cc(NC(=O)c2ccc3ccccc3c2)cc(C(=O)O)c1)Nc1cccc2ccccc12 [Compound H-613] | + to ++
32 | 80 to 94 | O=C(O)c1cc(NC(=O)c2ccc3c(c2)OCCO3)cc(NC(=O)n2c3ccccc3c3ccccc32)c1 [Compound H-692] | +++
33 | 69 | CC(=O)Nc1ccc(C(=O)Nc2cc(NC(=O)n3c4ccccc4c4ccccc43)cc(C(=O)O)c2)cc1 [Compound H-694] | ++
34 | 61 | O=C(O)c1cc(NC(=O)c2ccc3ccccc3n2)cc(NC(=O)N(c2ccccc2)c2ccccc2)c1 [Compound H-733] | −
35 | 88 to 95 | O=C(Cn1c2ccccc2c2ccccc21)Nc1cc(NC(=O)c2ccc3ccccc3c2)cc(C(=O)O)c1 [Compound H-745] | −
36 | 53 | O=C(Cn1c2ccccc2c2ccccc21)Nc1cc(NC(=O)c2ccc3c(c2)OCCO3)cc(C(=O)O)c1 [Compound H-749] | 
37 | 11 | O=C(COc1ccccc1)Nc1cc(NC(=O)n2c3ccccc3c3ccccc32)cc(C(=O)O)c1 [Compound H-759] | −
38 | 70 | O=C(COc1ccc2ccccc2c1)Nc1cc(NC(=O)n2c3ccccc3c3ccccc32)cc(C(=O)O)c1 [Compound H-761] | −
39 | 42.8 | O=C(COc1ccc2ccccc2n1)Nc1cc(NC(=O)n2c3ccccc3c3ccccc32)cc(C(=O)O)c1 [Compound H-765] | −
40 | 74.8 | O=C(CNC(=O)c1ccccc1)Nc1cc(NC(=O)n2c3ccccc3c3ccccc32)cc(C(=O)O)c1 [Compound H-767] | −
41 | 19.9 | O=C(CN(c1ccccc1)c1ccccc1)Nc1cc(NC(=O)c2ccccc2)cc(C(=O)O)c1 [Compound H-825] | 
